28 compounds from patent publication US8003649B2 (AstraZeneca AB, priority 2007, dated 2011) can be followed below.

Molecules are shown by their SMILES.

The first assay deals with T1, Androgen Receptor (AR) (Homo sapiens, UniProt P10275, T878A).
T1 construct: cell based immuno-fluorescence assay using the LNCaP prostate epithelial cell line; endogenous in cells; host or cells: LNCaP clone FGC (ATCC CRL-1740)
T1 sequence (P10275 1-920 T878A): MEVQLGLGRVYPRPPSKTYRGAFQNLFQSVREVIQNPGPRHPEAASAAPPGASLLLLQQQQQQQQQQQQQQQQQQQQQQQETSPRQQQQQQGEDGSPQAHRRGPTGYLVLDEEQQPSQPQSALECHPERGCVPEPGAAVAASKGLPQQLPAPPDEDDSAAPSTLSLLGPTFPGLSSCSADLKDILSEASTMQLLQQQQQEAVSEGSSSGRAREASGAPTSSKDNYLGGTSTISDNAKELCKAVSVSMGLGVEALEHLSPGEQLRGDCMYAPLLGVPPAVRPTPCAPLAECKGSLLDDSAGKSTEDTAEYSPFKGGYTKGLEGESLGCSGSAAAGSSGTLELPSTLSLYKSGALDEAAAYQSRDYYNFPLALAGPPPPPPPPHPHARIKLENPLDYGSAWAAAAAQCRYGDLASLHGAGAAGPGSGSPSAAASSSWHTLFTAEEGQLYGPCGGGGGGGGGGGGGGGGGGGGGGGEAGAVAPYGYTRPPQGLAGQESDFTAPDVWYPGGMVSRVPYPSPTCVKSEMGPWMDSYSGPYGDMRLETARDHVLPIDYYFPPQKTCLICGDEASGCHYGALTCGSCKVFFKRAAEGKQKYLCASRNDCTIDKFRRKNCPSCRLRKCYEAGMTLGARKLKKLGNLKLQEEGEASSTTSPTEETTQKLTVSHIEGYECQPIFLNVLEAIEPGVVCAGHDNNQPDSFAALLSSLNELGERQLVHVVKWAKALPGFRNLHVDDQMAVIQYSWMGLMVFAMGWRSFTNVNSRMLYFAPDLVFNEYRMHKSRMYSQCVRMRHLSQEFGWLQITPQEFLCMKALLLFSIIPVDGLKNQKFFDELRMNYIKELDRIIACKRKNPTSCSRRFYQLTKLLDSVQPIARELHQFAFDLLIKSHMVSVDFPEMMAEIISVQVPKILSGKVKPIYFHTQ
The assay can be described thus: LNCaP Androgen Receptor Down-regulation Cell Assay (immunofluorescence end point). The format is cell-based. As to conditions: LNCaP prostate carcinoma cells, compound incubation 20-22 hours, 50% reduction of the AR signal. In a few lines:
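LNCaP cells in medium with 5% charcoal-stripped FBS were plated overnight, then treated with a compound dilution series for 20-22 h at 37° C. After fixation, permeabilisation and immunostaining, AR-associated green fluorescence was quantified by laser-scanning microplate cytometry; AR down-regulation expressed as IC50 from fitted dose-response curves.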
As usually defined, the IC50 is the concentration needed to halve the response being measured. A higher IC50 goes with a need for much substance. As for `CS(=O)(=O)Oc1cccc(CN2CCN(c3ccc4nnc(C(F)(F)F)n4n3)CC2)c1` [Example 151, [3-[[4-[3-(trifluoromethyl)-[1,2,4]triazolo[4,3-b]pyridazin-6-yl]piperazin-1-yl]methyl]phenyl]methanesulfonate], half-maximal inhibition (IC50) required 3.1 µM. This counts as single-digit micromolar.

Staying with this assay, now noted: LNCaP prostate carcinoma cells, compound incubation 20-22 hours, 50% reduction of the AR signal; read-out: Androgen Receptor Down-regulation Assay (a) IC50/μM.
As for `FC(F)(F)c1nnc2ccc(N3CCN(Cc4cccc(Oc5ccc(Cl)cc5)c4)CC3)nn12` [Example 119, 6-[4-[[3-(4-chlorophenoxy)phenyl]methyl]piperazin-1-yl]-3-(trifluoromethyl)-[1,2,4]triazolo[4,3-b]pyridazine], the DC50 was determined as 2.2 µM.

For `COc1ccc(Oc2cccc(CN3CCN(c4ccc5nnc(C(F)(F)F)n5n4)CC3)c2)cc1` [Example 120, 6-[4-[[3-(4-methoxyphenoxy)phenyl]methyl]piperazin-1-yl]-3-(trifluoromethyl)-[1,2,4]triazolo[4,3-b]pyridazine], the DC50 was 1.7 µM.

`COC(=O)c1ccc(CN2CCN(c3ccc4nnc(C(F)(F)F)n4n3)CC2)cc1` [Example 121, methyl 4-[[4-[3-(trifluoromethyl)-[1,2,4]triazolo[4,3-b]pyridazin-6-yl]piperazin-1-yl]methyl]benzoate]: the DC50 was determined as 4.8 µM.

Turning to `CC(C)(C)c1ccc(CN2CCN(c3ccc4nnc(C(F)(F)F)n4n3)CC2)cc1` [Example 122, 6-[4-[(4-tert-butylphenyl)methyl]piperazin-1-yl]-3-(trifluoromethyl)-[1,2,4]triazolo[4,3-b]pyridazine], the DC50 was determined as 4.3 µM.

Turning to `CC(C)Cc1ccc(CN2CCN(c3ccc4nnc(C(F)(F)F)n4n3)CC2)cc1` [Example 123, 6-[4-[[4-(2-methylpropyl)phenyl]methyl]piperazin-1-yl]-3-(trifluoromethyl)-[1,2,4]triazolo[4,3-b]pyridazine], the DC50 amounted to 4.1 µM.

For `Cc1ccc(Sc2ccc(CN3CCN(c4ccc5nnc(C(F)(F)F)n5n4)CC3)cn2)cc1` [Example 124, 6-[4-[[6-(4-methylphenyl)sulfanylpyridin-3-yl]methyl]piperazin-1-yl]-3-(trifluoromethyl)-[1,2,4]triazolo[4,3-b]pyridazine], the DC50 amounted to 1.7 µM.

As to `Fc1ccc(-c2cccc(CN3CCN(c4ccc5nnc(C(F)(F)F)n5n4)CC3)c2)cc1` [Example 125, 6-[4-[[3-(4-fluorophenyl)phenyl]methyl]piperazin-1-yl]-3-(trifluoromethyl)-[1,2,4]triazolo[4,3-b]pyridazine], the DC50 worked out at 1.9 µM.

Consider `Fc1ccc(Oc2ccc(CN3CCN(c4ccc5nnc(C(F)(F)F)n5n4)CC3)cc2)cc1` [Example 126, 6-[4-[[4-(4-fluorophenoxy)phenyl]methyl]piperazin-1-yl]-3-(trifluoromethyl)-[1,2,4]triazolo[4,3-b]pyridazine], for which the DC50 was found to be 2 µM.

As to `FC(F)(F)c1nnc2ccc(N3CCN(Cc4ccc(Br)cc4)CC3)nn12` [Example 127, 6-[4-[(4-bromophenyl)methyl]piperazin-1-yl]-3-(trifluoromethyl)-[1,2,4]triazolo[4,3-b]pyridazine], the DC50 was determined as 1.5 µM.

On to `CCN(CC)c1ccc(CN2CCN(c3ccc4nnc(C(F)(F)F)n4n3)CC2)cc1` [Example 128, N,N-diethyl-4-[[4-[3-(trifluoromethyl)-[1,2,4]triazolo[4,3-b]pyridazin-6-yl]piperazin-1-yl]methyl]aniline], for which the DC50 is 2.3 µM.

As for `CSc1ccc(CN2CCN(c3ccc4nnc(C(F)(F)F)n4n3)CC2)cc1` [Example 129, 6-[4-[(4-methylsulfanylphenyl)methyl]piperazin-1-yl]-3-(trifluoromethyl)-[1,2,4]triazolo[4,3-b]pyridazine], the DC50 is 0.99 µM.

Regarding `CC(C)c1ccc(CN2CCN(c3ccc4nnc(C(F)(F)F)n4n3)CC2)cc1` [Example 130, 6-[4-[(4-propan-2-ylphenyl)methyl]piperazin-1-yl]-3-(trifluoromethyl)-[1,2,4]triazolo[4,3-b]pyridazine], the DC50 turned out to be 1.8 µM.

For the compound `FC(F)(F)Oc1ccc(CN2CCN(c3ccc4nnc(C(F)(F)F)n4n3)CC2)cc1` [Example 131, 6-[4-[[4-(trifluoromethoxy)phenyl]methyl]piperazin-1-yl]-3-(trifluoromethyl)-[1,2,4]triazolo[4,3-b]pyridazine], the DC50 worked out at 4.1 µM.

Regarding `FC(F)(F)c1nnc2ccc(N3CCN(Cc4ccc(Oc5ccc(Cl)cc5)cc4)CC3)nn12` [Example 132, 6-[4-[[4-(4-chlorophenoxy)phenyl]methyl]piperazin-1-yl]-3-(trifluoromethyl)-[1,2,4]triazolo[4,3-b]pyridazine], the DC50 amounted to 2.6 µM.

For the compound `FC(F)(F)c1nnc2ccc(N3CCN(Cc4ccc(-c5ccccn5)cc4)CC3)nn12` [Example 134, 6-[4-[(4-pyridin-2-ylphenyl)methyl]piperazin-1-yl]-3-(trifluoromethyl)-[1,2,4]triazolo[4,3-b]pyridazine], the DC50 was found to be 1.8 µM.

Take `CCS(=O)(=O)c1ccc(CN2CCN(c3ccc4nnc(C(F)(F)F)n4n3)CC2)cc1` [Example 135, 6-[4-[(4-ethylsulfonylphenyl)methyl]piperazin-1-yl]-3-(trifluoromethyl)-[1,2,4]triazolo[4,3-b]pyridazine]: the DC50 was 4.9 µM.

Regarding `FC(F)(F)c1nnc2ccc(N3CCN(Cc4ccc(Cl)nc4)CC3)nn12` [Example 137, 6-[4-[(6-chloropyridin-3-yl)methyl]piperazin-1-yl]-3-(trifluoromethyl)-[1,2,4]triazolo[4,3-b]pyridazine], the DC50 stood at 1.5 µM.

`C=CCOc1ccc(CN2CCN(c3ccc4nnc(C(F)(F)F)n4n3)CC2)cc1` [Example 139, 6-[4-[(4-prop-2-enoxyphenyl)methyl]piperazin-1-yl]-3-(trifluoromethyl)-[1,2,4]triazolo[4,3-b]pyridazine]: the DC50 was 2 µM.

`CN(C)CCOc1ccc(CN2CCN(c3ccc4nnc(C(F)(F)F)n4n3)CC2)cc1` [Example 140, N,N-dimethyl-2-[4-[[4-[3-(trifluoromethyl)-[1,2,4]triazolo[4,3-b]pyridazin-6-yl]piperazin-1-yl]methyl]phenoxy]ethanamine]: the DC50 was 7.1 µM.

With `COc1ccc(CN2CCN(c3ccc4nnc(C(F)(F)F)n4n3)CC2)cn1` [Example 142, 6-[4-[(6-methoxypyridin-3-yl)methyl]piperazin-1-yl]-3-(trifluoromethyl)-[1,2,4]triazolo[4,3-b]pyridazine], the DC50 came to 5.1 µM.

Regarding `FC(F)(F)c1nnc2ccc(N3CCN(Cc4ccc(N5CCOCC5)nc4)CC3)nn12` [Example 143, 6-[4-[(6-morpholin-4-ylpyridin-3-yl)methyl]piperazin-1-yl]-3-(trifluoromethyl)-[1,2,4]triazolo[4,3-b]pyridazine], the DC50 turned out to be 8.8 µM.

In the case of `FC(F)(F)c1nnc2ccc(N3CCN(Cc4ccc(Oc5ccccc5)nc4)CC3)nn12` [Example 144, 6-[4-[(6-phenoxypyridin-3-yl)methyl]piperazin-1-yl]-3-(trifluoromethyl)-[1,2,4]triazolo[4,3-b]pyridazine], the DC50 was determined as 4.9 µM.

As to `CCOc1ccc(CN2CCN(c3ccc4nnc(C(F)(F)F)n4n3)CC2)cn1` [Example 147, 6-[4-[(6-ethoxypyridin-3-yl)methyl]piperazin-1-yl]-3-(trifluoromethyl)-[1,2,4]triazolo[4,3-b]pyridazine], the DC50 came to 2.5 µM.

Consider `CC(C)Oc1ccc(CN2CCN(c3ccc4nnc(C(F)(F)F)n4n3)CC2)cn1` [Example 148, 6-[4-[(6-propan-2-yloxypyridin-3-yl)methyl]piperazin-1-yl]-3-(trifluoromethyl)-[1,2,4]triazolo[4,3-b]pyridazine], for which the DC50 worked out at 3.4 µM.

Turning to `OCc1cccc(CN2CCN(c3ccc4nnc(C(F)(F)F)n4n3)CC2)c1` [Example 149, [3-[[4-[3-(trifluoromethyl)-[1,2,4]triazolo[4,3-b]pyridazin-6-yl]piperazin-1-yl]methyl]phenyl]methanol], the DC50 amounted to 7.9 µM.

Take `CS(=O)(=O)Nc1cccc(CN2CCN(c3ccc4nnc(C(F)(F)F)n4n3)CC2)c1` [Example 150, N-[3-[[4-[3-(trifluoromethyl)-[1,2,4]triazolo[4,3-b]pyridazin-6-yl]piperazin-1-yl]methyl]phenyl]methanesulfonamide]: the DC50 worked out at 7.6 µM.

As for `CS(=O)(=O)Oc1ccc(CN2CCN(c3ccc4nnc(C(F)(F)F)n4n3)CC2)cc1` [Example 152, [4-[[4-[3-(trifluoromethyl)-[1,2,4]triazolo[4,3-b]pyridazin-6-yl]piperazin-1-yl]methyl]phenyl]methanesulfonate], the DC50 is 6.7 µM.
